{"source": "patent US11564902B2", "about": "“Extended duration local anesthetic formulation” (Ventis Pharma, priority 2015, dated 2023)", "key": {"[1]": {"details": "cited from earlier work; for major nerve block duration: reportedly"}, "[2]": {"details": "with or without epinephrine; cited from earlier work"}, "[3]": {"details": "cited from earlier work"}, "[4]": {"details": "contact with blood; cited from earlier work"}, "[5]": {"details": "powdered form, room temperature; cited from earlier work"}, "[6]": {"experiment": "Toxic dose of local anesthetics on intravascular absorption", "details": "inferred from immediate hydrolysis on contact with blood", "excerpt": "Short duration local anesthetics are generally used in 1%-2% concentrations. Current applications for short duration local anesthetics are dictated by toxicity; these toxicities vary by drug. […] Intravascular injection or a toxic dosage carries the risk of potential complications such as cardiac arrhythmias or seizures.\nTotal dose is adjusted to the specific purpose for the local anesthetic administration."}}, "data": [{"smiles": "CCCCN1CCCCC1C(=O)Nc1c(C)cccc1C", "note": "(stereo not shown) [bupivacaine]", "values": [{"measurement": "major nerve block duration", "setting": "[1]", "value": "three to twelve"}, {"measurement": "analgesic duration", "setting": "[1]; transversus abdominis plane (TAP) block, 30-35 ml per side, abdominal procedures", "value": "12 to 16", "unit": "h"}, {"measurement": "toxic dose", "setting": "[2]", "value": 2.5, "unit": "mg per kg"}]}, {"smiles": "CCCN(CC)C(CC)C(=O)Nc1c(C)cccc1C", "note": "(stereo not shown) [etidocaine]", "values": [{"measurement": "major nerve block duration", "setting": "[1]", "value": "three to twelve"}]}, {"smiles": "CCCCNc1ccc(C(=O)OCCN(C)C)cc1", "note": "[tetracaine]", "values": [{"measurement": "motor blockade", "setting": "[3]; 0.2% concentration", "value": "minimal motor blockade"}, {"measurement": "neurotoxicity", "setting": "[3]; 0.2% concentration", "value": "not neurotoxic"}, {"measurement": "toxic concentration", "setting": "[3]; applied directly to nerve structures", "value": 1, "unit": "%"}, {"measurement": "metabolism in blood", "setting": "[4]", "value": "immediately metabolized in contact with blood"}, {"measurement": "stability", "setting": "[5]", "value": "stable at room temperature"}, {"measurement": "actual toxic dose", "setting": "[6]", "value": "higher than 5 mg/kg"}]}]}
